In patent US20230312587A1, “PTERIDINONE COMPOUNDS AND USES THEREOF” (Vertex Pharmaceutical Incorporated, priority 2018, published 2023):
pIC50: −log10 of the molar value. Read-outs that look alike come from different tables or passages of the source.

Legend:
Format in all cases: cell-based
HepG2 XBP1(u)-Luc cells = assay: HepG2 XBP1 reporter assay; conditions: 6 h
How it was run: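 Reporter cells are HepG2 stably carrying unspliced XBP1 fused to firefly luciferase, which becomes in-frame after IRE1alpha-mediated splicing. SteadyGlo luminescence was normalized to DMSO-treated cells for IC50 calculation.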

Hek293 empty vector = assay: In vitro cell viability (CellTiter-Glo), Hek293 empty vector
Method: HEK293 (ATCC, catalog #CRL-1573) cells are plated in 10 cm dishes (Corning, product #430167) into 10 mL of complete DMEM cell culture media [DMEM (Life Technologies, product #11960-051) media supplemented with 10% FBS (Hyclone, catalog #SH30071.03), antimycotic/antibiotic (Life Technologies, product #15240-062), and Glutamax (Life Technologies, product #35050-061)] at 3×10^6 cells per dish. Cells are allowed to attach and grow overnight at 37° C. in humidified 5% CO2. Cells are co-transfected with pVSV-G, pCMV-Gag/Pol and pCLPCX_WFS1 using Fugene 6 (Promega, catalog #E2691) according to manufacturer's protocol. Separately, cells are co-transfected with pVSV-G, pCMV-Gag/Pol and pCLPCX to produce control retrovirus. Cell culture media containing retrovirus (viral supernatant) is collected at 48 and 72 hours following transfection, filtered through a 0.4 uM filter, and stored at −80° C.
HEK293 cells are plated in 6 well plates (Corning, product #3516) in 2 mL of complete DMEM cell culture media at 1×10^5 cells well and allowed to attach and grow overnight at 37° C. in humidified 5% CO2. The following day, the media is replaced with viral supernatant to which 10 ug/ml of Polybrene® (Santa Cruz Biotech, catalog #sc-134220) is added. Viral supernatant is replaced 24 hours later with complete DMEM media. Transduced cells are selected in complete DMEM cell culture media containing 1 microgram/mL of puromycin (Life Technologies, catalog #A1113803).
(§1) HEK293 cells containing empty pCLPCx vector (HEK293 empty), HEK293 cells stably over-expression WFS1 (HEK293 WFS1), HepG2, and HepG2 cells where WFS1 was depleted via CRISPR/Cas9 (HepG2 WFS1 KO) cells were plated into 96-well black plates (Corning, product #3904) in 100 microliters of complete DMEM cell culture media [DMEM (Life Technologies, product #11960-051) media supplemented with 10% FBS (Hyclone, catalog #SH30071.03), antimycotic/antibiotic (Life Technologies, product #15240-062), and Glutamax (Life Technologies, product #35050-061)] at 1,000 (HEK293) or 5,000 (HepG2) cells per well. Cells were allowed to attach and grow overnight, after which compounds are added at various concentrations. Cell viability was assessed 96 hrs after compound addition with CellTiter-Glo reagent (Promega, catalog #G7570) according to manufacturer's protocol and measurement on a Pherastar luminescence plate reader (BMG Labtech).
The IC50s for the viability of both the Hek293 empty vector and WFS1 over-expressing cells are summarized in Table 47: A<0.06 μM; 0.06 μM≤B<0.6 μM; 0.6 μM≤C<3.0 μM; D≥3.0 μM.

HepG2 parental = assay: In vitro cell viability (CellTiter-Glo), HepG2 parental; conditions: 96 hours
Method: as §1
To determine the effect of WFS1 depletion on compound mediated inhibition of cell viability, parental HepG2 cells and HepG2 cells where WFS1 was deleted by CRISPR/Cas9 were exposed to increasing concentrations of either Compound 136 or Compound 253 for 96 hours after which time viability was determined using Cell Titer Glo reagent (Promega). […] The IC50s for the viability of both the HepG2 parental and WFS1 knockout cells are summarized in Table 47: A<0.5 μM; 0.5 μM≤<2.0 μM; 2.0 μM≤C<10.0 μM; D≥[…].

[1] = Homo sapiens, HEK293, read-out: Hek293 empty vector viability
[2] = Homo sapiens, read-out: HepG2 viability
[3] = Hek293 empty vector, read-out: Hek293 empty vector viability

`Cc1nc(NCc2cnn(CCC3CCOCC3)c2)nc2c1NC(=O)[C@H](C)N2C` [Compound 115, (7S)-4,7,8-trimethyl-2-(((1-(2-(tetrahydro-2H-pyran-4-yl)ethyl)-1H-pyrazol-4-yl)methyl)amino)-7,8-dihydropteridin-6(5H)-one] was tested, and the pIC50 (HepG2 XBP1(u)-Luc cells; Homo sapiens) was at most 5.00, the pIC50 (Hek293 empty vector; [1]) was at most 5.52 and the pIC50 (HepG2 parental; [2]) was at most 5.00.
Work on `Cc1nc(NCc2cnn(C3CCN(C(=O)c4ccc(F)cc4)CC3)c2)nc2c1NC(=O)[C@H](C)N2C` [Compound 125, (7S)-2-(((1-(1-(4-Fluorobenzoyl)piperidin-4-yl)-1H-pyrazol-4-yl)methyl)amino)-4,7,8-trimethyl-7,8-dihydropteridin-6(5H)-one] yielded a pIC50 (HepG2 XBP1(u)-Luc cells; Homo sapiens) of at most 5.00, a pIC50 (Hek293 empty vector; [1]) of at most 5.52 and a pIC50 (HepG2 parental; [2]) of 5.00 to 5.70.
For `Cc1nc(NCc2cnn(Cc3ccc(F)nc3)c2)nc2c1NC(=O)[C@H](C(C)C)N2C` [Compound 384, (7S)-2-(((1-((6-fluoropyridin-3-yl)methyl)-1H-pyrazol-4-yl)methyl)amino)-7-isopropyl-4,8-dimethyl-7,8-dihydropteridin-6(5H)-one], the pIC50 (HepG2 XBP1(u)-Luc cells; Homo sapiens) was 5.70 to 6.22, the pIC50 (Hek293 empty vector; [1]) was at most 5.52 and the pIC50 (HepG2 parental; [2]) was over 6.30.
Work on `Cc1nc(NCc2cnn(CCc3ccc(F)cc3)c2)nc2c1N(C)C(=O)[C@H](C)N2C` [Compound 8, (7S)-2-(((1-(4-fluorophenethyl)-1H-pyrazol-4-yl)methyl)amino)-4,5,7,8-tetramethyl-7,8-dihydropteridin-6(5H)-one] yielded a pIC50 (HepG2 XBP1(u)-Luc cells; Homo sapiens) of 5.00 to 5.70, a pIC50 (Hek293 empty vector; [1]) of at most 5.52 and a pIC50 (HepG2 parental; [2]) of 5.00 to 5.70.
For `Cc1nc(NCc2cnn(CC3CCC3)c2)nc2c1N(C)C(=O)[C@H](C)N2C` [Compound 7, (7S)-2-(((1-(cyclobutylmethyl)-1H-pyrazol-4-yl)methyl)amino)-4,5,7,8-tetramethyl-7,8-dihydropteridin-6(5H)-one], the pIC50 (HepG2 XBP1(u)-Luc cells; Homo sapiens) was 5.70 to 6.22, the pIC50 (Hek293 empty vector; [1]) was at most 5.52 and the pIC50 (HepG2 parental; [2]) was 5.00 to 5.70.
In the case of `Cc1nc(NCc2cnn(Cc3ccc(F)nc3)c2)nc2c1NC(=O)[C@H](C1CC1)N2C` [Compound 421, (7S)-7-cyclopropyl-2-(((1-((6-fluoropyridin-3-yl)methyl)-1H-pyrazol-4-yl)methyl)amino)-4,8-dimethyl-7,8-dihydropteridin-6(511)-one], the pIC50 (HepG2 XBP1(u)-Luc cells) was over 6.22, the pIC50 (Hek293 empty vector; [3]) was at most 5.52 and the pIC50 (HepG2 parental; read-out: HepG2 viability) was 5.70 to 6.30.
In the case of `Cc1cnc(C(F)(F)F)nc1-n1cc(CNc2ncc3c(n2)N(C)[C@@H](C)C(=O)N3)cn1` [Compound 164, (7S)-7,8-dimethyl-2-(((1-(5-methyl-2-(trifluoromethyl)pyrimidin-4-yl)-1H-pyrazol-4-yl)methyl)amino)-7,8-dihydropteridin-6(5H)-one], the pIC50 (HepG2 XBP1(u)-Luc cells; Homo sapiens) was 5.00 to 5.70, the pIC50 (Hek293 empty vector; [1]) was at most 5.52 and the pIC50 (HepG2 parental; [2]) was at most 5.00.
In the case of `Cc1nc(N[C@@H]2CC[C@@H](Oc3cc(F)c(F)c(F)c3)C2)nc2c1N(C)C(=O)[C@H](C)N2C` [Compound 272, (S)-4,5,7,8-tetramethyl-2-(((1R,3R)-3-(3,4,5-trifluorophenoxy)cyclopentyl)amino)-7,8-dihydropteridin-6(5H)-one], the pIC50 (Hek293 empty vector; [1]) was at most 5.52 and the pIC50 (HepG2 parental; [2]) was over 6.30.
“(7S)-4,7,8-trimethyl-2-((trans-3-(3,4-difluorophenoxy)cyclobutyl)amino)-7,8-dihydropteridin-6(5H)-one [Compound 251]” gave a pIC50 (Hek293 empty vector; [3]) of at most 5.52 and a pIC50 (HepG2 parental; read-out: HepG2 viability) of at most 5.00.
`Cc1nc(N[C@H]2C[C@@H](COc3cc(F)c(F)c(F)c3)C2)nc2c1NC(=O)[C@H](C)N2C` [Compound 257, (7S)-4,7,8-Trimethyl-2-((cis-3-((3,4,5-trifluorophenoxy)methyl)cyclobutyl)-amino)-7,8-dihydropteridin-6(5H)-one] showed a pIC50 (Hek293 empty vector; [1]) of at most 5.52 and a pIC50 (HepG2 parental; [2]) of 5.00 to 5.70.
In the case of `Cc1nc(N[C@H]2C[C@H](COc3cc(F)c(F)c(F)c3)C2)nc2c1NC(=O)[C@H](C)N2C` [Compound 258, (7S)-4,7,8-trimethyl-2-((trans-3-((3,4,5-trifluorophenoxy)methyl)-cyclobutyl)amino)-7,8-dihydropteridin-6(5H)-one], the pIC50 (Hek293 empty vector; [1]) was at most 5.52 and the pIC50 (HepG2 parental; [2]) was 5.00 to 5.70.
In the case of `Cc1nc(NCc2cnn(Cc3ccc(F)cc3)c2)nc2c1NC(=O)[C@H](C)N2C` [Compound 4, (7S)-2-(((1-(4-fluorobenzyl)-1H-pyrazol-4-yl)methyl)amino)-4,7,8-trimethyl-7,8-dihydropteridin-6(5H)-one], the pIC50 (Hek293 empty vector; [1]) was at most 5.52 and the pIC50 (HepG2 parental; [2]) was 5.00 to 5.70.
`Cc1nc(NCc2cnn([C@@H]3C[C@@H]3c3ccc(F)cc3)c2)nc2c1NC(=O)[C@H](C)N2C` [Compound 154, (7S)-2-(((1-((1R,2R)-2-(4-fluorophenyl)cyclopropyl)-1H-pyrazol-4-yl)methyl)amino)-4,7,8-trimethyl-7,8-dihydropteridin-6(5H)-one] showed a pIC50 (HepG2 XBP1(u)-Luc cells; Homo sapiens) of over 6.22 and a pIC50 (Hek293 empty vector; [1]) of at most 5.52.
`Cc1nc(NCc2cnn(Cc3ccc(F)cc3)c2)nc2c1N(C)C(=O)[C@H](C)N2C` [Compound 1, (7S)-2-(((1-(4-fluorobenzyl)-1H-pyrazol-4-yl)methyl)amino)-4,5,7,8-tetramethyl-7,8-dihydropteridin-6(5H)-one] showed a pIC50 (Hek293 empty vector; [1]) of at most 5.52 and a pIC50 (HepG2 parental; [2]) of over 6.30.
`Cc1nc(N[C@H]2C[C@H](Oc3ccc(C(F)(F)F)nc3)C2)nc2c1NC(=O)[C@H](C)N2C` [Compound 324, (7S)-4,7,8-trimethyl-2-((trans-3-((6-(trifluoromethyl)pyridin-3-yl)oxy)cyclobutyl)amino)-7,8-dihydropteridin-6(5H)-one] showed a pIC50 (HepG2 XBP1(u)-Luc cells; Homo sapiens) of over 6.22 and a pIC50 (Hek293 empty vector; [1]) of at most 5.52.
In the case of `Cc1nc(NCc2cnn(Cc3cc(C(F)(F)F)nn3C)c2)nc2c1NC(=O)[C@H](C)N2C` [Compound 160, (7S)-4,7,8-trimethyl-2-(((1-((1-methyl-3-(trifluoromethyl)-1H-pyrazol-5-yl)methyl)-1H-pyrazol-4-yl)methyl)amino)-7,8-dihydropteridin-6(5H)-one], the pIC50 (HepG2 XBP1(u)-Luc cells; Homo sapiens) was over 6.22 and the pIC50 (Hek293 empty vector; [1]) was at most 5.52.
Work on `Cc1nc(N[C@H]2C[C@@H](Sc3cc(F)c(F)c(F)c3)C2)nc2c1NC(=O)[C@H](C)N2C` [Compound 332, (7S)-4,7,8-trimethyl-2-((cis-3-((3,4,5-trifluorophenyl)thio)cyclobutyl)amino)-7,8-dihydropteridin-6(5H)-one] yielded a pIC50 (HepG2 XBP1(u)-Luc cells; Homo sapiens) of over 6.22 and a pIC50 (Hek293 empty vector; [1]) of at most 5.52.
`Cc1nc(NCc2ccc(-n3cc(C(F)(F)F)cn3)nc2)nc2c1NC(=O)[C@H](C)N2C` [Compound 143, (S)-4,7,8-trimethyl-2-(((6-(4-(trifluoromethyl)-1H-pyrazol-1-yl)pyridin-3-yl)methyl)amino)-7,8-dihydropteridin-6(5H)-one] was tested, and the pIC50 (HepG2 XBP1(u)-Luc cells; Homo sapiens) was 5.00 to 5.70 and the pIC50 (Hek293 empty vector; [1]) was at most 5.52.
`Cc1nc(N[C@H]2C[C@H](Oc3cc(F)c(F)c(F)c3)C2)nc2c1N(C)C(=O)[C@H](C)N2C` [Compound 253, (7S)-4,5,7,8-tetramethyl-2-((trans-3-(3,4,5-trifluorophenoxy)cyclobutyl)amino)-7,8-dihydropteridin-6(5H)-one] gave a pIC50 (Hek293 empty vector; [1]) of at most 5.52, a pIC50 (Hek293 empty vector; Homo sapiens, cell viability, Hek293 empty vector, read-out: IC50) of 4.82 and a pIC50 (Hek293 empty vector; Homo sapiens, cell viability, Hek293 empty vector, read-out: IC50 class) of at most 5.52. For the same compound, the pIC50 (HepG2 parental; [2]) was 5.70 to 6.30, the pIC50 (HepG2 parental; Homo sapiens, cell viability, Cell Titer Glo, read-out: IC50) was 6.19 and the pIC50 (HepG2 parental; Homo sapiens, cell viability, read-out: IC50 class) was 5.70 to 6.30.
Compound `Cc1nc(NCc2cnn([C@@H](C)c3ccc(C(F)(F)F)nc3)c2)nc2c1NC(=O)[C@H](C)N2C` [Compound 174, (7S)-4,7,8-Trimethyl-2-(((1-((S)-1-(6-(trifluoromethyl)pyridin-3-yl)ethyl)-1H-pyrazol-4-yl)methyl)amino)-7,8-dihydropteridin-6(5H)-one] has a pIC50 (HepG2 XBP1(u)-Luc cells; Homo sapiens) of 5.70 to 6.22 and a pIC50 (Hek293 empty vector; [1]) of at most 5.52.
